The subject of this experiment is Platelet. Nature of the experiment: Antiplatelet activity in Japanese white rabbit platelet assessed as inhibition of thrombin-induced platelet aggregation at 600 uM preincubated 5 mins before thrombin challenge. The class given is functional, cell-based. As to conditions: Oryctolagus cuniculus.

Calls of active or inactive are those of the source. The rule behind the calls is not given here.

Turning to `COc1cc(/C=C/[C@@H](CO)Cc2ccc(O)c(OC)c2)ccc1O`, the result was Active.

The record behind these values is ChEMBL document CHEMBL1159216, “Imperanene, a novel phenolic compound with platelet aggregation inhibitory activity from Imperata cylindrica” (J Nat Prod, 1995).
